Results: patent publication US20110152089A1, “HERBICIDAL COMPOSITIONS COMPRISING FLUFENACET” (Bayer CropScience AG, priority 2009, published 2011)

Experiments:
HORVS [1] = experiment: Different sowing depths, PE application, crop selectivity, greenhouse (Table 7); type: in vivo, Hordeum vulgare, summer barley; settings: g of AS/ha: (A) 90, (B) 300, (C) 140, (A)+(B)+(C) 90 + 300 + 140
Experimental: (§1) In the standard design of the test, seeds of various broad-leaved weed and weed grass biotypes (origins) were sown in a 8-13 cm diameter pot filled with natural soil of a standard field soil (loamy silt; non-sterile) and covered with a covering soil layer of about 1 cm. The pots were then cultivated in a greenhouse (12-16 h of light, temperature day 20-22° C., night 15-18° C.) until the time of application. The pots were treated on a laboratory track sprayer with spray liquors comprising the compositions according to the invention, mixtures of the prior art or components used individually. Application of the active compounds or active compound combinations formulated as WG, WP, EC or otherwise was carried out at the appropriate growth stages of the plants. The application rate for the spray application was 100-600 l of water/ha. After the treatment, the plants were returned to the greenhouses.
(§2) About 3 weeks after the application, the soil action or/and foliar action was assessed visually according to a scale of 0-100% in comparison to an untreated comparative group: 0%=no noticeable effect compared to the untreated comparative group; 100%=full effect compared to the untreated comparative group.
(§3) (notes: the term “seeds” also includes vegetative propagation forms such as, for example, rhizome pieces; abbreviations used: h light=hours of illumination, g of AS/ha=gram of active substance per hectare, l/ha=liter per hectare, S=sensitive, R=resistant) • 1. Pre-emergence action against weeds: seeds of various broad-leaved weed and weed grass biotypes (origins) were sown in a 8-13 cm diameter pot filled with natural soil of a standard field soil (loamy silt; non-sterile) and covered with a covering soil layer of about 1 cm. The pots were then cultivated in a greenhouse (12-16 h of light, temperature day 20-22° C., night 15-18° C.) until the time of application. The pots were treated at the BBCH stage 00-10 of the seeds/plants on a laboratory track sprayer with spray liquors comprising the compositions according to the invention, mixtures or components used individually, as WG, WP, EC or other formulations. The application rate for the spray application was 100-600 l of water/ha. After the treatment, the plants were returned to the greenhouses and, when required, treated with fertilizer and watered. • 2. Post-emergence action against weeds: seeds of various broad-leaved weed and weed grass biotypes (origins) were sown in a 8-13 cm diameter pot filled with natural soil of a standard field soil (loamy silt; non-sterile) and covered with a covering soil layer of about 1 cm. The pots were then cultivated in a greenhouse (12-16 h of light, temperature day 20-22° C., night 15-18° C.) until the time of application. The pots were treated at various BBCH stages between 11-25 of the seeds/plants, i.e. generally between two to three weeks after the start of the cultivation, on a laboratory track sprayer with spray liquors comprising the compositions according to the invention, mixtures or components used individually, as WG, WP, EC or other formulations. The application rate for the spray application was 100-600 l of water/ha. After the treatment, the plants were returned to the greenhouses and, when required, treated with fertilizer and watered. • 3. Pre-emergence action against weeds with and without incorporation of active compound: seeds of various broad-leaved weed and weed grass biotypes (origins) were sown in a 8-13 cm diameter pot filled with natural soil of a standard field soil (loamy silt; non-sterile). […]

HORVS [2] = experiment: PO application, crop selectivity, greenhouse (Table 2); type: in vivo, Hordeum vulgare, summer barley; settings: g of AS/ha: (A) 120, (B) 1200, (C) 140, (A)+(B)+(C) 120 + 1200 + 140, visual, about 3 weeks after application
Experimental: as §1, §2
(§4) (notes: the term “seeds” also includes vegetative propagation forms such as, for example, rhizome pieces; abbreviations used: h light=hours of illumination, g of AS/ha=gram of active substance per hectare, l/ha=liter per hectare, S=sensitive, R=resistant) • 1. Pre-emergence action against weeds: seeds of various broad-leaved weed and weed grass biotypes (origins) were sown in a 8-13 cm diameter pot filled with natural soil of a standard field soil (loamy silt; non-sterile) and covered with a covering soil layer of about 1 cm. The pots were then cultivated in a greenhouse (12-16 h of light, temperature day 20-22° C., night 15-18° C.) until the time of application. […]

VIOAR = experiment: Activity with different soil types, greenhouse (Table 5); type: in vivo, Viola arvensis; settings: g of AS/ha: (A) 90, (B) 300, (C) 140, (A)+(B)+(C) 90 + 300 + 140
Experimental: as §1, §2, §3

MATCH [3] = experiment: Different soil pH, PE application, greenhouse (Table 8); type: in vivo, Matricaria chamomilla
Experimental: as §1, §2, §3

HORVS [4] = experiment: Different soil pH, PE application, crop selectivity, greenhouse (Table 8); type: in vivo, Hordeum vulgare, summer barley
Experimental: as §1, §2, §3

STEME [5] = experiment: Activity with different soil types, greenhouse (Table 5); type: in vivo, Stellaria media; settings: g of AS/ha: (A) 90, (B) 300, (C) 140, (A)+(B)+(C) 90 + 300 + 140
Experimental: as §1, §2, §3

HORVS [6] = experiment: Activity with different soil types, crop selectivity, greenhouse (Table 5); type: in vivo, Hordeum vulgare, summer barley; settings: g of AS/ha: (A) 90, (B) 300, (C) 140, (A)+(B)+(C) 90 + 300 + 140
Experimental: as §1, §2, §3

HORVS [7] = experiment: PE application vs pre-sowing application, crop selectivity, greenhouse (Table 3); type: in vivo, Hordeum vulgare, summer barley; settings: g of AS/ha: (A) 90, (B) 300, (C) 140, (A)+(B)+(C) 90 + 300 + 140
Experimental: as §1, §2, §3

HORVS [8] = experiment: PE soil application vs incorporation into the soil, crop selectivity, greenhouse (Table 1); type: in vivo, Hordeum vulgare, summer barley; settings: g of AS/ha: (A) 90, (B) 300, (C) 70, (A)+(B)+(C) 90 + 300 + 70, visual, about 3 weeks after application
Experimental: as §1, §2, §3

STEME [9] = experiment: Resistant biotypes, PE application, greenhouse (Table 6); type: in vivo, Stellaria media; settings: g of AS/ha: (A) 90, (B) 300, (C) 140, (A)+(B)+(C) 120 + 600 + 140, iodosulfuron 10; for activity STEME resistant: resistant biotype; for activity STEME sensitive: sensitive biotype
Experimental: as §1, §2, §3

HORVS [10] = experiment: PE application with different irrigation, crop selectivity, greenhouse (Table 4); type: in vivo, Hordeum vulgare, summer barley; settings: g of AS/ha: (A) 90, (B) 300, (C) 140, (A)+(B)+(C) 90 + 300 + 140
Experimental: as §1, §2, §3

TRZAW = experiment: Different soil pH, PE application, crop selectivity, greenhouse (Table 8); type: in vivo, Triticum aestivum, winter wheat
Experimental: as §1, §2, §3

AVEFA = experiment: PE application with different irrigation, greenhouse (Table 4); type: in vivo, Avena fatua; settings: g of AS/ha: (A) 90, (B) 300, (C) 140, (A)+(B)+(C) 90 + 300 + 140
Experimental: as §1, §2, §3

MATCH [11] = experiment: as above; type: in vivo, Matricaria chamomilla; settings: g of AS/ha: (A) 90, (B) 300, (C) 140, (A)+(B)+(C) 90 + 300 + 140
Experimental: as §1, §2, §3

STEME [12] = experiment: PE soil application vs incorporation into the soil, greenhouse (Table 1); type: in vivo, Stellaria media; settings: g of AS/ha: (A) 90, (B) 300, (C) 70, (A)+(B)+(C) 90 + 300 + 70, visual, about 3 weeks after application
Experimental: as §1, §2, §3

POAAN = experiment: PO application, greenhouse (Table 2); type: in vivo, Poa annua; settings: g of AS/ha: (A) 120, (B) 1200, (C) 140, (A)+(B)+(C) 120 + 1200 + 140, visual, about 3 weeks after application
Experimental: as §1, §2, §4

[13] = IU soil (loamy silt standard field soil)
[14] = IU/EC73 soil (heavy soil, higher organic substance)
[15] = soil pH 7.4, g of AS/ha: (A) 90, (B) 300, (C) 140, (A)+(B)+(C) 90 + 300 + 140
[16] = soil pH 8.4, g of AS/ha: (A) 90, (B) 300, (C) 140, (A)+(B)+(C) 90 + 300 + 140

CC(C)N(C(=O)COc1nnc(C(F)(F)F)s1)c1ccc(F)cc1 [(A) flufenacet, N-(4-fluorophenyl)-N-(1-methylethyl)-2-[[5-(trifluoromethyl)-1,3,4-thiadiazol-2-yl]oxy]acetamide]
activity HORVS 5 mm (crop plant) (HORVS [1]; sowing depth 5 mm): 30% | activity HORVS 20 mm (crop plant) (HORVS [1]; sowing depth 20 mm): 20% | activity HORVS (crop plant) (HORVS [2]): 40% | activity VIOAR IU soil (VIOAR; [13]): 0% | activity V18 VIOAR IU/EC73 soil (VIOAR; [14]): 0% | activity MATCH pH 7.4 (MATCH [3]; [15]): 5% | activity MATCH pH 8.4 (MATCH [3]; [16]): 0% | activity HORVS pH 7.4 (crop plant) (HORVS [4]; [15]): 10% | activity HORVS pH 8.4 (crop plant) (HORVS [4]; [16]): 10% | activity STEME IU soil (STEME [5]; [13]): 0% | activity STEME IU/EC73 soil (STEME [5]; [14]): 0% | activity HORVS IU soil (crop plant) (HORVS [6]; [13]): 10% | activity HORVS IU/EC73 soil (crop plant) (HORVS [6]; [14]): 0% | activity HORVS (crop plant) (HORVS [7]; PE application): 20% | activity HORVS (crop plant) (HORVS [7]; application 7 days prior to sowing): 40% | activity HORVS (crop plant) (HORVS [8]; PE application): 20% | activity HORVS (crop plant) (HORVS [8]; incorporation into the soil): 60% | activity STEME resistant (STEME [9]): 0% | activity STEME sensitive (STEME [9]): 0% | activity HORVS (crop plant) (HORVS [10]; irrigation from above): 95% | activity HORVS (crop plant) (HORVS [10]; irrigation from below): 80% | activity TRZAW pH 7.4 (crop plant) (TRZAW; [15]): 0% | activity TRZAW pH 8.4 (crop plant) (TRZAW; [16]): 20% | activity AVEFA (AVEFA; irrigation from above): 92% | activity AVEFA (AVEFA; irrigation from below): 63% | activity MATCH (MATCH [11]; irrigation from above): 49% | activity MATCH (MATCH [11]; irrigation from below): 15% | activity STEME (STEME [12]; PE application): 0% | activity STEME (STEME [12]; incorporation into the soil): 20% | activity POAAN (POAAN): 60%

COc1nc(C)nc(NC(=O)NS(=O)(=O)c2cc(I)ccc2C(=O)O)n1 [iodosulfuron]
activity STEME resistant (STEME [9]): 40% | activity STEME sensitive (STEME [9]): 90%
